Measured values published in US8329395B2 (priority 2003, dated 2012).

Key:
[1] = system: thiA-lacZ fusion (ΩamyE::thiA-lacZ) in B. subtilis TH21; type: cell-based, Bacillus subtilis; conditions: for repression of thiA-lacZ expression: 1 μM in shake-flask culture, early logarithmic phase (OD600=0.8-0.9), compared to minimal medium without thiamin; for repressing activity on thiA-lacZ expression: 1 μM each
Experimental: The strategy to isolate thiamin deregulated mutants of B. subtilis was to mutagenize bacteria that contained a thiA-lacZ fusion and then screen for colonies on XGAL-containing medium that were Lac^+ (i.e. blue colonies) in the presence of TPP or thiamin. A 732 bp-long DNA fragment containing 417 bp of the 5′ promoter region of thiA was prepared by PCR using standard methods and cloned unidirectionally in front of the promoterless lacZ gene of the pDG1728 vector (Guerout-Fleury et al. (1996) Gene 180:57-61), resulting in plasmid pTH12. This vector is designed to introduce ectopic transcriptional lacZ fusions into the non-essential amyE locus of B. subtilis. Plasmid pTH12 was linearized by restriction enzyme digestion and transformed into B. subtilis PY79, selecting for colonies that were resistant to 100 μg/ml spectinomycin.

[2] = system: B. subtilis PY79 gene transcripts; assay: Microarray profiling of transcript levels in response to TPP; type: cell-based, Bacillus subtilis; conditions: wild-type cells, exponential phase, minimal medium without TPP vs with TPP
Experimental: In order to perform microarray profiling, PY79 was grown in shake-flask cultures that contained 50 ml Spizizen minimal medium with or without added thiamin pyrophosphate. Overnight cultures were diluted to Klett=10 units into fresh medium and grown to exponential growth phase (Klett=100 units). Cells from half of the culture were collected by centrifugation, and the total RNA was immediately extracted as previously described (Lee et al. (2001) J. Bacteriol. 183:7371-7380). The remaining culture was grown to early stationary phase before RNA extraction. Early stationary phase was judged to be 30 min after glucose exhaustion; glucose content in the medium was measured by a glucose analyzer 2 (Beckman, Fullerton, Calif.) using standard procedures. Preparation of labeled cDNA targets, microarray hybridization and staining procedures, and data analysis are described in Lee et al. above.

Compound: Cc1ncc(C[n+]2csc(CCO)c2C)c(N)n1 [thiamin]
- repression of thiA-lacZ expression [1]: approximately 80 fold

Compound: Cc1ncc(C[n+]2csc(CCOP(=O)(O)OP(=O)(O)O)c2C)c(N)n1 [TPP, thiamin pyrophosphate]
- transcript ratio wt−vit/wt+vit, gene dxs (yqiE) [2]: n/c
- transcript ratio wt−vit/wt+vit, gene thiA [2]: 62
- transcript ratio wt−vit/wt+vit, gene thiC [2]: n/c
- transcript ratio wt−vit/wt+vit, gene thiD1 (yjbV) [2]: 32
- transcript ratio wt−vit/wt+vit, gene thiD2 [2]: n/c^b
- transcript ratio wt−vit/wt+vit, gene thiF (yjbU) [2]: 90
- transcript ratio wt−vit/wt+vit, gene thiG (yjbT) [2]: 82
- transcript ratio wt−vit/wt+vit, gene thiK [2]: n/c
- transcript ratio wt−vit/wt+vit, gene thiL (ydiA) [2]: n/c
- transcript ratio wt−vit/wt+vit, gene thiO (goxB) [2]: 67
- transcript ratio wt−vit/wt+vit, gene thiS (yjbS) [2]: 84
- transcript ratio wt−vit/wt+vit, gene ykoC [2]: 12
- transcript ratio wt−vit/wt+vit, gene ykoD [2]: 26
- transcript ratio wt−vit/wt+vit, gene ykoE [2]: 17
- transcript ratio wt−vit/wt+vit, gene ykoF [2]: 20
- transcript ratio wt−vit/wt+vit, gene ylmB [2]: 5.0
- transcript ratio wt−vit/wt+vit, gene yloS [2]: 1.6
- transcript ratio wt−vit/wt+vit, gene ytbJ [2]: n/c
- transcript ratio wt−vit/wt+vit, gene yuaA [2]: 7.4

Compound: Nc1ncnc2c1ncn2[C@@H]1O[C@H](CO)[C@@H](O)[C@H]1O [adenosine]
- repressing activity on thiA-lacZ expression [1]: showed repressing activity

Compound: Cc1ncc(CO)c(N)n1 [HMP, 4-amino-5-hydroxymethyl-2-methylpyrimidine]
- repression of thiA-lacZ expression [1]: 6- to 7 fold

Compound: c1cscn1 [thiazole]
- repressing activity on thiA-lacZ expression [1]: showed repressing activity
